Where a name gives a salt, the structure may show the parent alone. Read-outs that look alike come from different tables or passages of the source.
Columns and labels:
PAF receptor = biological target: T1, PAF receptor (Oryctolagus cuniculus, UniProt G1TEI7); assay: Binding test using [3H]-PAF (PAF receptor binding test); set-up: species or system rabbit; settings: rabbit platelet membrane fraction, [3H]-PAF 0.4 nM, 25°C, 60 minutes; read-out: Receptor Binding Inhibition IC50 (converted)
T1 construct: Cell membrane fraction of rabbit platelets was prepared; from tissue; host or cells: rabbit platelets (cell membrane fraction)
Experimental: Binding Test Using [^3H]-PAF (PAF receptor binding test)
Cell membrane fraction of rabbit platelets was prepared in accordance with the method by Hwang et al (Biochemistry; 22; 4756, (1983)). In 10 mM Tris buffer containing 0.25% bovine serum albumin, 50 mg of this membrane fraction was suspended and tritium-labelled PAF [^3H]-PAF; 0.4 nM) and a test compound were added thereto. After incubating the resulting mixture at 25°C for 60 minutes, the mixture was subjected to filtration through a filter paper made of glass fibers. The filter paper was washed with cold Tris buffer three times and then transferred to a vial. A scintillator was added thereto and the dose of radioactivity was measured with a liquid scintillation counter. The inhibition rate (binding ability) of the test compound was calculated according to the following equation and IC50 values were determined by interpolation. Inhibition Rate (%) = {1 - [((A - B))/((C - B))]} x 100 [formula] (wherein A represents amount bound in the presence of the compound, B represents amount bound by non-specific binding which is the dose of [^3H]-PAF bound radioactivity in the presence of 1 µM of PAF, and C represents total amount bound which is the dose of [^3H]-PAF bound radioactivity.
As a control agent, WEB2086 (Japanese Laid-open Patent Application (Kokai) No. 65-176591) disclosed as a PAF-antagonist was used.

rabbit platelets = rabbit platelets (Oryctolagus cuniculus, UniProt G1TEI7); assay: in vitro platelet agglutination inhibition test (PAF-induced); assay type: cell-based; settings: rabbit platelet-rich plasma, PAF final concentration 10 ng/ml, 37°C
Experimental: To determine the PAF-antagonizing property of the compounds, the PAF-induced agglutination of rabbit platelets in vitro is utilized. To obtain platelet-rich plasma (PRP), venous blood is taken from rabbit auricular vein into a plastic centrifugal tube containing 1.0% sodium citrate solution. The ratio of sodium citrate solution to blood is 1:10. The obtained citrate-containing blood is centrifuged at 70 x g (625 rpm) at room temperature for 20 minutes and the PRP in the upper layer is transferred to another plastic tube. The remaining lower layer is further centrifuged at 1500 x g (2800 rpm) for 10 minutes and the platelet poor plasma (PPP) in the upper layer is recovered. The platelet agglutination is measured by using aggregometer commercially available from Niko Bioscience, Inc. An aliquote of the PRP is poured into a cubette for measurement. Immediately thereafter, aspirin, creatinin phosphate and creatinin phosphokinase are added to final concentrations of 0.1 mM, 7 mM and 45 U/ml, respectively. Then a solution of a test compound is added and the resulting mixture is stirred at 37°C for 2 minutes. To the resultant, PAF (final concentration: 10 ng/ml) is added to induce platelet aggregation. The platelet aggregation rate is calculated from the relative maximum value in each aggregation curve taking the transmittance of PPP as the maximum aggregation (100% aggregation). Using the aggregation rate when physiological saline was added as a control, the inhibition rate which was the ratio of the aggregation rate when the test compound was added to the control was calculated and the IC50 values were determined by interpolation.

[1] = read-out: PAF-Induced Platelet Aggregation IC50 (converted)

Chain of rabbit platelets (G1TEI7 1-342): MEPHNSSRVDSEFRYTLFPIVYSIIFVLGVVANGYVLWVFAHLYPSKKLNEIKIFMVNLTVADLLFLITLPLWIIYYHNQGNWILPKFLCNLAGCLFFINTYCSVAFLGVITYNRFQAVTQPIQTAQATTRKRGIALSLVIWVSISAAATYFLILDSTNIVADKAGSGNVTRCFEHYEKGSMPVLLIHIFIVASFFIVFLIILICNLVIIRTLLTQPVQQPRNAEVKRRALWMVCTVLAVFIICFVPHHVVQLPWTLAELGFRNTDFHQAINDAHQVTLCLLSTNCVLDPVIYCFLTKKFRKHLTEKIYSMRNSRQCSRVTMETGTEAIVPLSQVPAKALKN
T1 sequence (G1TEI7 1-342): as above

## Cc1nnc2n1-c1ccccc1N(CCN1CCN(C(c3ccccc3)c3ccccc3)CC1)C2 [Compound 43, 4,5-dihydro-1-methyl-5-[3-[4-(diphenylmethyl)piperazin-1-yl]ethyl][1,2,4]triazolo[4,3-a]quinoxaline fumaric acid salt]
PAF receptor
  IC50: 6460 nM

## Cc1nnc2n1-c1ccccc1N(CCCN1CCN(C(c3ccccc3)c3ccccc3)CC1)C2 [Compound 44, 4,5-dihydro-1-methyl-5-[3-[4-(diphenylmethyl)piperazin-1-yl]propyl][1,2,4]triazolo[4,3-a]quinoxaline]
PAF receptor
  IC50: 1670 nM

## CCCc1nnc2n1-c1ccccc1N(CCCN1CCC(c3c[nH]c4ccccc34)CC1)C2 [Compound 53, 4,5-dihydro-1-propyl-5-[3-[4-(3-indolyl)piperidin-1-yl]propyl] [1,2,4]triazolo[4,3-a]quinoxaline]
Rabbit platelets; [1]
  IC50: 3960 nM
PAF receptor
  IC50: 3300 nM

## COc1ccc2[nH]cc(C3CCN(CCCN4Cc5nnc(C)n5-c5ccccc54)CC3)c2c1 [Compound 54, 4,5-dihydro-1-methyl-5-[3-[4-(5-methoxy-3-indolyl)piperidin-1-yl]propyl] [1,2,4]triazolo[4,3-a]quinoxaline]
PAF receptor
  IC50: 1160 nM

## Cc1nnc2n1-c1ccccc1N(CCCN1CCC(c3c[nH]c4ccc(Cl)cc34)CC1)C2 [Compound 55, 4,5-dihydro-1-methyl-5-[3-[4-(5-chloro-3-indolyl)piperidin-1-yl]propyl] [1,2,4]triazolo[4,3-a]quinoxaline]
PAF receptor
  IC50: 803 nM

## Cc1nnc2n1-c1ccccc1N(CCCN1CCC(c3c[nH]c4ccc(Br)cc34)CC1)C2 [Compound 56, 4,5-dihydro-1-methyl-5-[3-[4-(5-bromo-3-indolyl)piperidin-1-yl]propyl] [1,2,4]triazolo[4,3-a]quinoxaline]
PAF receptor
  IC50: 950 nM

## Cc1nnc2n1-c1ccccc1N(CCCN1CCC(c3c[nH]c4ccc(F)cc34)CC1)C2 [Compound 57, 4,5-dihydro-1-methyl-5-[3-[4-(5-fluoro-3-indolyl)piperidin-1-yl]propyl] [1,2,4]triazolo[4,3-a]quinoxaline]
PAF receptor
  IC50: 2700 nM

## Cc1ccc2[nH]cc(C3CCN(CCCN4Cc5nnc(C)n5-c5ccccc54)CC3)c2c1 [Compound 58, 4,5-dihydro-1-methyl-5-[3-[4-(5-methyl-3-indolyl)piperidin-1-yl]propyl] [1,2,4]triazolo[4,3-a]quinoxaline]
PAF receptor
  IC50: 636 nM

## Cc1nnc2n1-c1ccccc1N(CCCN1CC=C(c3c[nH]c4ccccc34)CC1)C2 [Compound 63, 4,5-dihydro-1-methyl-5-[3-[1,2,3,6-tetrahydro-4-(3-indolyl)pyridin-1-yl]propyl] [1,2,4]triazolo[4,3-a]quinoxaline]
Rabbit platelets; read-out: PAF-Induced Platelet Aggregation IC50
  IC50: 10400 nM

## CCn1cc(C2CCN(CCCN3Cc4nnc(C)n4-c4ccccc43)CC2)c2ccccc21 [Compound 64, 4,5-dihydro-1-methyl-5-[3-[4-(1-ethyl-3-indolyl)piperidin-1-yl]propyl][1,2,4]triazolo[4,3-a] quinoxaline fumaric acid salt]
Rabbit platelets; [1]
  IC50: 2800 nM
PAF receptor
  IC50: 806 nM

## Cc1nnc2n1-c1ccc(Cl)cc1N(CCCN1CCC(c3c[nH]c4ccccc34)CC1)C2 [Compound 65, 7-chloro-4,5-dihydro-1-methyl-5-[3-[4-(3-indolyl)piperidin-1-yl]propyl][1,2,4]triazolo[4,3-a]quinoxaline]
Rabbit platelets; [1]
  IC50: 4340 nM
PAF receptor
  IC50: 10400 nM

## Cc1nnc2n1-c1ccc(F)cc1N(CCCN1CCC(c3c[nH]c4ccccc34)CC1)C2 [Compound 66, 7-fluoro-4,5-dihydro-1-methyl-5-[3-[4-(3-indolyl)piperidin-1-yl]propyl][1,2,4]triazolo[4,3-a]quinoxaline]
Rabbit platelets; [1]
  IC50: 4270 nM

## Cc1nnc2n1-c1ccccc1N(CCCN1CCN(C(c3ccccc3)c3ccc(Cl)cc3)CC1)C2 (centres unmarked) [Compound 69, 4,5-dihydro-1-methyl-5-[3-[4-[(4-chlorophenyl)phenylmethyl]piperazin-1-yl]propyl][1,2,4]triazolo[4,3-a]quinoxaline]
PAF receptor
  IC50: 702 nM

## Cc1nnc2n1-c1ccccc1N(CCCN1CCC(C(O)(c3ccccc3)c3ccccc3)CC1)C2 [Compound 74, 4,5-dihydro-1-methyl-5-[3-[4-(hydroxydiphenylmethyl)piperidin-1-yl]propyl][1,2,4]triazolo[4,3-a] quinoxaline tartaric acid salt]
PAF receptor
  IC50: 357 nM

## Cc1nnc2n1-c1ccccc1N(CCCN1CCC(OC(c3ccccc3)c3ccccc3)CC1)C2 [Compound 76, 4,5-dihydro-1-methyl-5-[3-[4-(diphenylmethoxy)piperidin-1-yl]propyl][1,2,4]triazolo[4,3-a] quinoxaline tartaric acid salt]
PAF receptor
  IC50: 202 nM

## Cc1nnc2n1-c1ccccc1N(CCCN1CCC(=C(c3ccc(F)cc3)c3ccc(F)cc3)CC1)C2 [Compound 77, 4,5-dihydro-1-methyl-5-[3-[4-[bis(4-fluorophenyl)methylene]piperidin-1-yl]propyl][1,2,4]triazolo[4,3-a] quinoxaline]
Rabbit platelets; [1]
  IC50: 141 nM
PAF receptor
  IC50: 190 nM

## Cc1nnc2n1-c1ccccc1N(CCCN1CCC(=C3c4ccccc4C=Cc4ccccc43)CC1)C2 [Compound 78, 4,5-dihydro-1-methyl-5-[3-[4-(5H-dibenzo[a,d]cyclohepten-5-ylidene)piperidin-1-yl]propyl][1,2,4]triazolo[4,3-a] quinoxaline]
Rabbit platelets; [1]
  IC50: 4800 nM
PAF receptor
  IC50: 118 nM

## Cc1nnc2n1-c1ccccc1N(CCCN1CCC(c3noc4ccccc34)CC1)C2 [Compound 80, 4,5-dihydro-1-methyl-5-[3-[4-(1,2-benzisoxazol-3-yl)piperidin-1-yl]propyl][1,2,4]triazolo[4,3-a] quinoxaline]
Rabbit platelets; [1]
  IC50: 103 nM
PAF receptor
  IC50: 770 nM

## Cc1nnc2n1-c1ccccc1N(CCCN1CCC(n3c(=O)[nH]c4ccccc43)CC1)C2 [Compound 81, 4,5-dihydro-1-methyl-5-[3-[4-(2-keto-1-benzimidazolynyl)piperidin-1-yl]propyl][1,2,4]triazolo[4,3-a] quinoxaline]
Rabbit platelets; [1]
  IC50: 1530 nM
PAF receptor
  IC50: 3380 nM

## Cc1nnc2n1-c1ccccc1N(CCCN1CCC(=C(c3ccccc3)c3ccccc3)C1)C2 [Compound 85, 4,5-dihydro-1-methyl-5-[3-[3-(diphenylmethylene)pyrrolidin-1-yl]propyl][1,2,4]triazolo[4,3-a] quinoxaline]
Rabbit platelets; [1]
  IC50: 3030 nM
PAF receptor
  IC50: 238 nM

## COc1ccccc1N1CCN(CCCN2Cc3nnc(C)n3-c3ccccc32)CC1 [Compound 86, 4,5-dihydro-1-methyl-5-[3-[4-(2-methoxyphenyl)piperazin-1-yl]propyl][1,2,4]triazolo[4,3-a] quinoxaline]
Rabbit platelets; [1]
  IC50: 5260 nM
PAF receptor
  IC50: 7170 nM

## Cc1nnc2n1-c1ccccc1N(CCCN1CCC(=C3c4ccccc4CCc4ccccc43)CC1)C2 [Compound 87, 4,5-dihydro-1-methyl-5-[3-[4-(10,11-dihydro-5H-dibenzo[a,d]cyclohepten-5-ylidene)piperidin-1-yl]propyl][1,2,4]triazolo[4,3-a] quinoxaline]
Rabbit platelets; [1]
  IC50: 6180 nM
PAF receptor
  IC50: 199 nM

## Cc1nnc2n1-c1ccccc1N(CCCN1CCC(=C3c4ccccc4COc4ccccc43)CC1)C2 [Compound 88, 4,5-dihydro-1-methyl-5-[3-[4-(6,11-dihydrodibenzo[b.e]oxepin-11-ylidene)piperidin-1-yl]propyl][1,2,4]triazolo[4,3-a] quinoxaline]
Rabbit platelets; [1]
  IC50: 1710 nM
PAF receptor
  IC50: 675 nM

## Cc1nnc2n1-c1ccccc1N(CCCN1CCC(C(O)(c3ccc(F)cc3)c3ccc(F)cc3)CC1)C2C (centres unmarked) [Compound 90, 4,5-dihydro-1,4-dimethyl-5-[3-[4-[hydroxybis(4-fluorophenyl)methyl]piperidin-1-yl]propyl][1,2,4]triazolo[4,3-a] quinoxaline]
Rabbit platelets; [1]
  IC50: 1030 nM
PAF receptor
  IC50: 1820 nM

## CCc1nnc2n1-c1ccccc1N(CCCN1CCC(=C(c3ccccc3)c3ccccc3)CC1)C2 [Compound 92, 1-ethyl-4,5-dihydro-5-[3-[4-(diphenylmethylene)piperidin-1-yl]propyl][1,2,4]triazolo[4,3-a] quinoxaline]
Rabbit platelets; [1]
  IC50: 1350 nM

## Cc1nnc2n1-c1ccccc1N(CCCN1CCC(C(O)(c3cccs3)c3cccs3)CC1)C2 [Compound 127]
Rabbit platelets; [1]
  IC50: 455 nM
PAF receptor
  IC50: 152 nM

## Cc1nnc2n1-c1ccccc1N(CCCN1CCC(C(=O)c3ccccc3)CC1)C2 [Compound 128, 4,5-dihydro-1-methyl-5-[3-(4-benzoylpiperidin-1-yl)propyl] [1,2,4]triazolo[4,3-a]quinoxaline]
Rabbit platelets; [1]
  IC50: 4090 nM
PAF receptor
  IC50: 1520 nM

## Cc1nnc2n1-c1ccccc1N(CCCN1CCC(C(O)(c3ccccc3)c3cccs3)CC1)C2 (centres unmarked) [Compound 129]
Rabbit platelets; [1]
  IC50: 340 nM
PAF receptor
  IC50: 340 nM

## COc1ccc(C(O)(c2ccccc2)C2CCN(CCCN3Cc4nnc(C)n4-c4ccccc43)CC2)cc1OC (centres unmarked) [Compound 130, 4,5-dihydro-1-methyl-5-[3-[4-[hydroxy(3,4-dimethoxyphenyl)phenylmethyl]piperidin-1-yl]propyl] [1,2,4]triazolo[4,3-a]quinoxaline]
Rabbit platelets; [1]
  IC50: 578 nM
PAF receptor
  IC50: 126 nM

## Cc1nnc2n1-c1ccccc1N(CCCN1CCC(C(O)(c3ccccc3)c3ccc(N(C)C)cc3)CC1)C2 (centres unmarked) [Compound 131]
Rabbit platelets; [1]
  IC50: 242 nM
PAF receptor
  IC50: 83.8 nM

## Cc1cccc(C(O)(c2ccccc2)C2CCN(CCCN3Cc4nnc(C)n4-c4ccccc43)CC2)c1 (centres unmarked) [Compound 132, 4,5-dihydro-1-methyl-5-[3-[4-[hydroxyphenyl(3-tolyl)methyl]piperidin-1-yl]propyl] [1,2,4]triazolo[4,3-a]quinoxaline]
Rabbit platelets; [1]
  IC50: 70.9 nM
PAF receptor
  IC50: 51.2 nM

## Cc1nnc2n(CCN3CCN(C(c4ccccc4)c4ccccc4)CC3)c3ccccc3n12 [Compound 191, 3-methyl-9-[3-[4-(diphenylmethyl)piperazin-1-yl]ethyl]-9H-[1,2,4]triazolo[4,3-a]benzimidazole fumaric acid salt]
PAF receptor
  IC50: 7100 nM

— patent EP0536419B1, “TRICYCLIC TRIAZOLE DERIVATIVES, PRODUCTION AND USE THEREOF” (TORAY INDUSTRIES, INC., priority 1991, dated 1992)
